Article PMC7157554, “Anti-Trypanosomal Proteasome Inhibitors Cure Hemolymphatic and Meningoencephalic Murine Infection Models of African Trypanosomiasis” (Tropical Medicine and Infectious Disease, 2020)
≈ marks a conversion by molar mass, not a printed value. Like-named read-outs stand apart in the source and are kept apart here.

Experiments:
[1] = Rat brain tissue binding; type: in vitro ADME; conditions: rat brain tissue homogenate
Description: (§1) Test compounds’ solubility was determined in a high-throughput thermodynamic solubility assay, as described previously. The PAMPA (parallel artificial membrane) assays were carried out, using a standard protocol. Plasma protein binding was determined by using mouse blood, whilst brain tissue binding was determined by using rat brain tissue homogenate. Intrinsic metabolic clearances were determined in mouse liver microsomes, using the compound depletion approach and LC–MS/MS quantification.

[2] = tested on: MDR1 (Pgp); assay: in vitro; conditions: dog, MDCK-MDR1
Description: In order to evaluate potential of brain permeability, all three compounds were tested in an MDR1-MDCK permeability assay. […] Those that have a high efflux ratio are generally substrates for Pgp transporters, thereby having a higher propensity to be excluded from the brain. […] To assess directly the TP compounds’ ability to penetrate brain, mice were dosed with compound, and plasma and brains were collected after 5 and 60 min following intravenous dosing.

[3] = Mouse plasma protein binding; type: in vitro ADME; conditions: for fraction unbound: mouse plasma
Description: as §1

[4] = Per oral pharmacokinetics in mouse; type: in vivo; conditions: for AUC / Cmax: total
Description: Determination of intravenous (i.v.) and per oral (p.o.) pharmacokinetics (PK) were carried out by using male BALB/c mice. For i.v. PK studies, compounds were formulated at a concentration of 2.5 mg/mL in 75% PEG300 and 25% D5W (5% dextrose in distilled water). To avoid any granular material, the solution was filtered, using a 0.45 μm syringe filter. The filtered solutions were dosed intravenously to mice via the lateral tail vein, at 5 mg/kg, with a dosing volume of 2 mL/kg. For all the p.o. PK studies, compounds were resuspended in 0.5% v/v methyl cellulose in 0.5 % v/v tween 80 solution. For 20 mg/kg dosing, 200 µL of compounds was administered orally to mice. Six blood samples of 50 μL each were collected serially from each animal, up to 24 h after dosing. Blood samples were collected into heparin microtainers and centrifuged, and then plasma was separated and frozen until analysis. Plasma samples (20 μL) were extracted with acetonitrile:methanol (3:1) containing internal standard. The samples were vortexed and then centrifuged in an Eppendorf centrifuge 5810R, at a setting of 4000 rpm, for 5 min, at 4 °C. The supernatant was transferred to a 96-well analysis plate and analyzed, using optimized LC/MS/MS conditions. For every experiment, 3 mice were used per compound, per dose. The plasma concentration-time profile was obtained by plotting the mean value from the three animals at each time point. Various PK parameters, such as Cmax (maximum concentration), area under curve (AUC) and oral bioavailability (F) for compounds, were calculated by non-compartmental regression analysis, using an in-house fitting program developed at GNF [8]. All the in-life studies were carried out under protocols approved by the Animal Care and Use Committee (IACUC), following animal ethics guidelines of GNF.

[5] = HepG2 cytotoxicity assay (CCK-8, 96 h); type: cell-based, human; conditions: human, HepG2 cells, mean ± SEM
Description: The HepG2 (human hepatocellular carcinoma) cells were obtained from ATCC (American Type Culture Collection) and grown in RPMI media. Cytotoxicity assay was performed in 384-well format, and 25 µL, approximately 1.6 × 10^4 cells/mL, suspension was added to clear-bottom 384-well Griener plates and incubated in 5% CO2 incubator, at 37 °C for 24 h. Once the cells adhered, 125 nL of threefold serially diluted compounds in DMSO was added. Plates were incubated for 96 h, at 37 °C, in a 5% CO2 incubator. Plates were read for viability by adding 10 µL of CCK-8 reagent (APExBIO) into each well, followed by 3 h incubation and absorbance reading at […], using an Envision plate reader. […] Puromycin was used as a positive control. All experiments had two technical replicates and three biological replicates. Appropriate statistical tests were used for evaluating significance, and mean ± SEM is represented in the tables.

[6] = High-throughput thermodynamic solubility assay; type: physicochemical; conditions: for solubility: pH 6.8, thermodynamic from solid
Description: as §1

[7] = tested on: T. b. gambiense; assay: Growth inhibition of T. b. gambiense strains; type: cell-based; conditions: Trypanosoma brucei, mean ± SD, read-out: T. b. gambiense EC50
[8] = tested on: T. b. brucei; assay: Growth inhibition of T. b. brucei strains BS221, BS221 (P2 KO), STIB950; type: cell-based; conditions: Trypanosoma brucei, mean ± SD, read-out: T. b. brucei EC50
Description: The T. b. brucei strain Lister 427 (bloodstream form) parasites were continuously grown in complete HMI-9 medium supplemented with 10% Serum Plus and 10% heat-inactivated fetal bovine serum (FBS). All other parasite strains were cultured as described elsewhere.
For determination of 50% growth inhibition, all compounds were dissolved in DMSO, and 200 nL of threefold serially diluted compounds were added into solid-bottom 384-well white plates (Greiner Bio-One, Kremsmunster, Austria) by an Echo 555 acoustic liquid-handling system. Forty microliters of 10^4 cells/mL of T. b. brucei parasites was added into each well, and the plates were incubated in a 5% CO2 incubator at 37 °C for 48 h. Viability of parasites were determined by measuring intracellular ATP levels, using CellTiter-Glo (CTG) luminescent cell viability reagent (Promega, Madison, Wisconsin WI, USA). The EC50 values were determined by using GraphPad Prism software. Growth inhibition assays for all clinical isolates were carried out as described earlier. All experiments had two technical replicates and three biological replicates. […]

[9] = tested on: T. brucei PSMB4^WT; assay: Growth inhibition of T. brucei expressing wild-type 20S proteasome β4 subunit; type: cell-based; conditions: Trypanosoma brucei, read-out: T. brucei PSMB4^WT EC50
Description: (§2) For determination of 50% growth inhibition, all compounds were dissolved in DMSO, and 200 nL of threefold serially diluted compounds were added into solid-bottom 384-well white plates (Greiner Bio-One, Kremsmunster, Austria) by an Echo 555 acoustic liquid-handling system. Forty microliters of 10^4 cells/mL of T. b. brucei parasites was added into each well, and the plates were incubated in a 5% CO2 incubator at 37 °C for 48 h. Viability of parasites were determined by measuring intracellular ATP levels, using CellTiter-Glo (CTG) luminescent cell viability reagent (Promega, Madison, Wisconsin WI, USA). The EC50 values were determined by using GraphPad Prism software. Growth inhibition assays for all clinical isolates were carried out as described earlier. All experiments had two technical replicates and three biological replicates. Appropriate statistical tests were used for evaluating significance, and mean ± SEM is represented in the tables.

[10] = tested on: T. brucei PSMB4^F24L; assay: Growth inhibition of T. brucei expressing F24L mutant 20S proteasome β4 subunit; type: cell-based, Trypanosoma brucei; conditions: Trypanosoma brucei, read-out: T. brucei PSMB4^F24L EC50
Description: as §2

[11] = male, BALB/c, plasma, po, p.o. 20 mg/kg, 0 to infinity
[12] = male, BALB/c, plasma, po, p.o. 20 mg/kg
[13] = GAMBIENSE / STIB930, strain STIB930

SMILES	BTB (rat brain tissue binding) [1] [%]	efflux ratio [2]	fraction unbound [3]	AUC [4, 11] [µM·h]	Cmax [4, 12] [µM]	Tmax ([4]; p.o. 20 mg/kg) [H]	Cmax, free fraction (value in parenthesis) ([4]; p.o. 20 mg/kg, free) [µM]	CC50 at 96 h [5] [nM]	solubility [6] [µg/mL]	EC50 [7, 13] [nM]	EC50 ([7]; GAMBIENSE, strain K048) [nM]	EC50 ([7]; GAMBIENSE, strain R130) [nM]	EC50 ([8]; STIB950, strain STIB950) [nM]	EC50 ([8]; strain BS221 (P2 KO)) [nM]	EC50 ([8]; strain BS221) [nM]	EC50 [9] [nM]	EC50 [10] [nM]	further results
Cc1nc(C)c(C(=O)Nc2ccc(F)c(-c3nc4ncc(-c5ccccc5)cn4n3)c2)o1 [GNF3849]	>99	3.2	< 0.01	108	7.16	3	< 0.0716	1100 ± 200	< 2	4.5 ± 1	4.8 ± 1.1	1.9 ± 1	0.9 ± 0.2	4 ± 2.5	1.9 ± 0.8	10 ± 3	2200 ± 20	Mouse plasma protein binding [3]: high; Exposure, fold less than GNF6702 ([4]; oral): ~ 2.5 fold; AUC, free fraction (value in parenthesis) ([4]; p.o. 20 mg/kg, 0 to infinity, free): < 1.0751 µM·h; Solubility pH 6.8 ([6]; pH 6.8): poor
Cc1nc(C)c(C(=O)Nc2ccc(F)c(-c3nc4ncc(-c5ccccn5)cn4n3)c2)o1 [GNF6702]	–	–	–	–	–	–	–	–	–	3.7 ± 2	3.5 ± 1.4	2.3 ± 1.1	1.2 ± 0.5	3.5 ± 1.2	0.9 ± 0.3	–	–	–
Cc1nc(C)c(C(=O)Nc2ccc(F)c(-c3nc4ncc(C(C)(C)C)cn4n3)c2)o1 [NITD689]	96.5	0.9	0.095	89.7	12.2	0.5	1.1562	> 20000	71 (≈ 174 µM)	–	–	–	–	–	–	20 ± 4	1900 ± 20	bioavailability ([4]; male, BALB/c, plasma, po, p.o. 20 mg/kg, read-out: F (oral bioavailability)): 100%
